Laboratory results taken from patent US20080171721A1, “Halogenated alkyl di- and trisaccharides, pharmaceutical formulations, diagnostic kits and methods of treatment” (priority 2007, published 2008).

Tests used:
S. aureus = experiment: Antimicrobial testing, time-kill with plate count; type: cell-based, Staphylococcus aureus; conditions: antimicrobial if greater than 5 log reduction
Description: (§1) The preferred embodiment was tested for antimicrobial activity using the following procedure.
(§2) A 1% solution of Compound 3 was prepared in DPBS (Dulbecco's phosphate buffered saline). A 25 ml mixture of the 1% Compound 3 and PBS (phosphate buffered saline, pH 7.2 was prepared by mixing 5 ml of the 1% Compound 3 solution and 20 ml of the PBS.
(§3) A 10 ml aliquot of the above mixture was placed into each of two sterile test tubes. One test tube was inoculated with 0.1 ml of S. aureus and the other with 0.1 ml of P. aeruginosa, such that there was a final concentration of 10^6 colony-forming units (CFU)/0.1 mls.
(§4) A various time points, 1.0 ml of each inoculated test sample were removed, diluted 10× with 0.45% saline and plated on trypticase soy agar (TSA) plates.
(§5) The plates were incubated at 30-35° C. for not less than 24 hours. Concentration of CFU in the samples taken at each time point were enumerated by standard methods. The log reduction was calculated for each time period and organism. The log reduction was calculated using the formula: Log reduction=Log inoculums verification−sample log recovery.

P. aeruginosa = experiment: Antimicrobial testing, time-kill with plate count; type: cell-based, Pseudomonas aeruginosa; conditions: antimicrobial if greater than 5 log reduction
Description: as §1, §2, §3, §4, §5

CCCCCCCCCCCC(=O)OCC1O[C@H](O[C@@]2(CCl)O[C@H](CCl)C(O)C2O)C(O)C(O)[C@H]1Cl (stereo in doubt) [Compound 3, 1′,6′-Dichloro-1′,6′-dideoxy-β-D-fructofuranosyl-4-chloro-4-deoxy-6-O-monododecanoate-α-galactopyranoside]
antimicrobial effect (S. aureus): has antimicrobial effect against S. aureus | antimicrobial effect (P. aeruginosa): not P. aeruginosa
